According to patent US12398097B2, “WDR5-MYC inhibitors” (Vanderbilt University, priority 2019, dated 2025):

target: WDR5 (Homo sapiens, UniProt P61964); experiment: Competition-based fluorescence polarization anisotropy assay; conditions: binding to WDR5; displacement of FITC-labeled small molecule probe (analogous to Example J2 or HCH-25) or peptide probe FITC-AHx-SEEEIDVVSV; pH 6.0; Ki converted from IC50
Method in brief: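 Ki values derive from displacement of either a fluorescent small-molecule probe or a FITC-peptide probe from WDR5, monitored by fluorescence polarization. Assay run at pH 6.0 in 200 mM phosphate with 300 mM NaCl, 0.5 mM TCEP and 0.1% Chaps.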

| Structure (SMILES) | Ki [nM] |
| --- | --- |
| CCc1cc(NS(=O)(=O)c2cc(Br)ccc2O)c(O)c(C(=O)O)c1 [HCH-18, 3-((5-Bromo-2-hydroxyphenyl)sulfonamido)-5-ethyl-2-hydroxybenzoic acid] | 60 |
| CCc1cc(NS(=O)(=O)c2cc(Br)cc(Cl)c2O)c(O)c(C(=O)O)c1 [HCH-22, 3-((5-Bromo-3-chloro-2-hydroxyphenyl)sulfonamido)-5-ethyl-2-hydroxybenzoic acid] | 90 |
| O=C(O)c1cc(OC(F)(F)F)cc(NS(=O)(=O)c2cc(Br)cc(Cl)c2O)c1O [HCH-24, 3-((5-Bromo-3-chloro-2-hydroxyphenyl)sulfonamido)-2-hydroxy-5-(trifluoromethoxy)benzoic acid] | 40 |
| NC(=O)c1cc(Cl)cc(NS(=O)(=O)c2cc(Br)cc(Cl)c2O)c1O [HCH-25, 3-((5-Bromo-3-chloro-2-hydroxyphenyl)sulfonamido)-5-chloro-2-hydroxybenzamide] | 270 |
| O=C(O)c1cc(OC(F)(F)F)cc(NS(=O)(=O)c2cc(Br)cc(CCCO)c2O)c1O [HCH-27, 3-((5-Bromo-2-hydroxy-3-(3-hydroxypropyl)phenyl)sulfonamido)-2-hydroxy-5-(trifluoromethoxy)benzoic acid] | 400 |
| CCC(O)CNC(=O)c1cc(OC(F)(F)F)cc(NS(=O)(=O)c2cc(Br)cc(F)c2O)c1O (centres unmarked) [HCH-39, 3-((5-Bromo-3-fluoro-2-hydroxyphenyl)sulfonamido)-2-hydroxy-N-(2-hydroxybutyl)-5-(trifluoromethoxy)benzamide] | 320 |
| CCC(O)CNC(=O)c1cc(OC(F)(F)F)cc(NS(=O)(=O)c2cc(Br)cc(Cl)c2O)c1O (centres unmarked) [HCH-41, 3-((5-Bromo-3-chloro-2-hydroxyphenyl)sulfonamido)-2-hydroxy-N-(2-hydroxybutyl)-5-(trifluoromethoxy)benzamide] | 230 |
| CC(O)(CNC(=O)c1cc(OC(F)(F)F)cc(NS(=O)(=O)c2cc(Br)ccc2O)c1O)C1CC1 (centres unmarked) [HCH-44, 3-((5-Bromo-2-hydroxyphenyl)sulfonamido)-N-(2-cyclopropyl-2-hydroxypropyl)-2-hydroxy-5-(trifluoromethoxy)benzamide] | 430 |
| NC(=O)[C@H](CO)NC(=O)c1cc(OC(F)(F)F)cc(NS(=O)(=O)c2cc(Br)ccc2O)c1O [HCH-47, (S)—N-(1-Amino-3-hydroxy-1-oxopropan-2-yl)-3-((5-bromo-2-hydroxyphenyl)sulfonamido)-2-hydroxy-5-(trifluoromethoxy)benzamide] | 260 |
| NC(=O)C(NC(=O)c1cc(OC(F)(F)F)cc(NS(=O)(=O)c2cc(Br)ccc2O)c1O)c1ccccn1 (centres unmarked) [HCH-49, N-(2-Amino-2-oxo-1-(pyridin-2-yl)ethyl)-3-((5-bromo-2-hydroxyphenyl)sulfonamido)-2-hydroxy-5-(trifluoromethoxy)benzamide] | 320 |
| CN1CCC(O)(CNC(=O)c2cc(OC(F)(F)F)cc(NS(=O)(=O)c3cc(Br)cc(Cl)c3O)c2O)CC1 [HCH-50, 3-((5-Bromo-3-chloro-2-hydroxyphenyl)sulfonamido)-2-hydroxy-N-((4-hydroxy-1-methylpiperidin-4-yl)methyl)-5-(trifluoromethoxy)benzamide] | 210 |
| O=C(NCC1(O)CCOCC1)c1cc(OC(F)(F)F)cc(NS(=O)(=O)c2cc(Br)cc(Cl)c2O)c1O [HCH-53, 3-((5-Bromo-3-chloro-2-hydroxyphenyl)sulfonamido)-2-hydroxy-N-((4-hydroxytetrahydro-2H-pyran-4-yl)methyl)-5-(trifluoromethoxy)benzamide] | 170 |
| O=C(NC1COC1)c1cc(OC(F)(F)F)cc(NS(=O)(=O)c2cc(Br)cc(Cl)c2O)c1O [HCH-54, 3-((5-Bromo-3-chloro-2-hydroxyphenyl)sulfonamido)-2-hydroxy-N-(oxetan-3-yl)-5-(trifluoromethoxy)benzamide] | 140 |
| O=C(NC1CC(F)(F)C1)c1cc(OC(F)(F)F)cc(NS(=O)(=O)c2cc(Br)ccc2O)c1O [HCH-55, 3-((5-Bromo-2-hydroxyphenyl)sulfonamido)-N-(3,3-difluorocyclobutyl)-2-hydroxy-5-(trifluoromethoxy)benzamide] | 350 |
| CC(NC(=O)c1cc(OC(F)(F)F)cc(NS(=O)(=O)c2cc(Br)cc(Cl)c2O)c1O)C(N)=O (centres unmarked) [HCH-57, N-(1-Amino-1-oxopropan-2-yl)-3-((5-bromo-3-chloro-2-hydroxyphenyl)sulfonamido)-2-hydroxy-5-(trifluoromethoxy)benzamide] | 150 |
| CCc1cc(Br)cc(S(=O)(=O)Nc2cc(Cl)cc(C(=O)NC3COC3)c2O)c1O [HCH-58, 3-((5-Bromo-3-ethyl-2-hydroxyphenyl)sulfonamido)-5-chloro-2-hydroxy-N-(oxetan-3-yl)benzamide] | 460 |
| COC1CC(NC(=O)c2cc(OC(F)(F)F)cc(NS(=O)(=O)c3cc(Br)cc(Cl)c3O)c2O)C1 (centres unmarked) [HCH-60, 3-((5-Bromo-3-chloro-2-hydroxyphenyl)sulfonamido)-2-hydroxy-N-(3-methoxycyclobutyl)-5-(trifluoromethoxy)benzamide] | 240 |
| O=C(NC1CC(O)C1)c1cc(OC(F)(F)F)cc(NS(=O)(=O)c2cc(Br)cc(Cl)c2O)c1O (centres unmarked) [HCH-61, 3-((5-Bromo-3-chloro-2-hydroxyphenyl)sulfonamido)-2-hydroxy-N-(3-hydroxycyclobutyl)-5-(trifluoromethoxy)benzamide] | 240 |
| CNC(=O)c1cc(OC(F)(F)F)cc(NS(=O)(=O)c2cc(Br)cc(Cl)c2O)c1O [HCH-63, 3-((5-Bromo-3-chloro-2-hydroxyphenyl)sulfonamido)-2-hydroxy-N-methyl-5-(trifluoromethoxy)benzamide] | 200 |
| N#CC1(c2ccc(O)c(NS(=O)(=O)c3cc(Br)ccc3O)c2)CCCC1 [JDM-06-030A, 5-Bromo-N-(5-(1-cyanocyclopentyl)-2-hydroxyphenyl)-2-hydroxybenzenesulfonamide] | 610 |
| N#CC1(c2ccc(O)c(NS(=O)(=O)c3cc(Br)ccc3O)c2)CCC1 [JDM-06-030B, 5-Bromo-N-(5-(1-cyanocyclobutyl)-2-hydroxyphenyl)-2-hydroxybenzenesulfonamide] | 290 |
| N#CC1(c2ccc(O)c(NS(=O)(=O)c3cc(Br)ccc3O)c2)CCCCC1 [JDM-06-030C, 5-Bromo-N-(5-(1-cyanocyclohexyl)-2-hydroxyphenyl)-2-hydroxybenzenesulfonamide] | 230 |
| O=S(=O)(Nc1cc(S(F)(F)(F)(F)F)ccc1O)c1cc(Br)ccc1O [JDM-08-142A, 5-Bromo-2-hydroxy-N-(2-hydroxy-5-(pentafluorosulfanyl)phenyl)benzenesulfonamide] | 110 |
| O=S(=O)(Nc1cc(C2(C(F)(F)F)CC2)ccc1O)c1cc(Br)ccc1O [JDM-09-131, 5-Bromo-2-hydroxy-N-(2-hydroxy-5-(1-(trifluoromethyl)cyclopropyl)phenyl)benzenesulfonamide] | 550 |

The remaining lines, values ahead:

| Ki [nM] | Structure (SMILES) |
| --- | --- |
| 460 | CCc1cc(NS(=O)(=O)c2cc(Br)cc(F)c2O)c(O)c(C(=O)O)c1 [HCH-21, 3-((5-Bromo-3-fluoro-2-hydroxyphenyl)sulfonamido)-5-ethyl-2-hydroxybenzoic acid] |
| 250 | O=C(NCCO)c1cc(OC(F)(F)F)cc(NS(=O)(=O)c2cc(Br)ccc2O)c1O [HCH-26, 3-((5-Bromo-2-hydroxyphenyl)sulfonamido)-2-hydroxy-N-(2-hydroxyethyl)-5-(trifluoromethoxy)benzamide] |
| 350 | CCc1cc(Br)cc(S(=O)(=O)Nc2cc(OC(F)(F)F)cc(C(=O)NCC(O)CC)c2O)c1O (centres unmarked) [HCH-40, 3-((5-Bromo-3-ethyl-2-hydroxyphenyl)sulfonamido)-2-hydroxy-N-(2-hydroxybutyl)-5-(trifluoromethoxy)benzamide] |
| 430 | O=C(NCC(O)c1ccsc1)c1cc(OC(F)(F)F)cc(NS(=O)(=O)c2cc(Br)ccc2O)c1O (centres unmarked) [HCH-43, 3-((5-Bromo-2-hydroxyphenyl)sulfonamido)-2-hydroxy-N-(2-hydroxy-2-(thiophen-3-yl)ethyl)-5-(trifluoromethoxy)benzamide] |
| 440 | CCC(C)(O)CNC(=O)c1cc(OC(F)(F)F)cc(NS(=O)(=O)c2cc(Br)ccc2O)c1O (centres unmarked) [HCH-45, 3-((5-Bromo-2-hydroxyphenyl)sulfonamido)-2-hydroxy-N-(2-hydroxy-2-methylbutyl)-5-(trifluoromethoxy)benzamide] |
| 450 | CNC(=O)C(CO)NC(=O)c1cc(OC(F)(F)F)cc(NS(=O)(=O)c2cc(Br)ccc2O)c1O (centres unmarked) [HCH-46, 3-((5-Bromo-2-hydroxyphenyl)sulfonamido)-2-hydroxy-N-(3-hydroxy-1-(methylamino)-1-oxopropan-2-yl)-5-(trifluoromethoxy)benzamide] |
| 120 | CC(O)(CNC(=O)c1cc(OC(F)(F)F)cc(NS(=O)(=O)c2cc(Br)cc(Cl)c2O)c1O)C1CC1 (centres unmarked) [HCH-51, 3-((5-Bromo-3-chloro-2-hydroxyphenyl)sulfonamido)-N-(2-cyclopropyl-2-hydroxypropyl)-2-hydroxy-5-(trifluoromethoxy)benzamide] |
| 140 | CC(C)C(O)CNC(=O)c1cc(OC(F)(F)F)cc(NS(=O)(=O)c2cc(Br)cc(Cl)c2O)c1O (centres unmarked) [HCH-52, 3-((5-Bromo-3-chloro-2-hydroxyphenyl)sulfonamido)-2-hydroxy-N-(2-hydroxy-3-methylbutyl)-5-(trifluoromethoxy)benzamide] |
| 190 | NC(=O)[C@H](CO)NC(=O)c1cc(OC(F)(F)F)cc(NS(=O)(=O)c2cc(Br)cc(Cl)c2O)c1O [HCH-56, (S)—N-(1-Amino-3-hydroxy-1-oxopropan-2-yl)-3-((5-bromo-3-chloro-2-hydroxyphenyl)sulfonamido)-2-hydroxy-5-(trifluoromethoxy)benzamide] |
| 340 | CCc1cc(Br)cc(S(=O)(=O)Nc2cc(Cl)cc(C(=O)NC(C)C(N)=O)c2O)c1O (centres unmarked) [HCH-59, N-(1-Amino-1-oxopropan-2-yl)-3-((5-bromo-3-ethyl-2-hydroxyphenyl)sulfonamido)-5-chloro-2-hydroxybenzamide] |
| 330 | NC(=O)c1cc(OC(F)(F)F)cc(NS(=O)(=O)c2cc(Br)cc(Cl)c2O)c1O [HCH-62, 3-((5-Bromo-3-chloro-2-hydroxyphenyl)sulfonamido)-2-hydroxy-5-(trifluoromethoxy)benzamide] |
